# Test results published in US20100075926A1, “ACTIVATION OF HISTONE DEACETYLASE 1 (HDAC1) PROTECTS AGAINST DNA DAMAGE AND INCREASES NEURONAL SURVIVAL” (priority 2008, published 2010).
# Columns and labels:
# [1] = molecular target: T1, recombinant human HDAC1 (Homo sapiens, UniProt Q13547); experiment: Caliper mobility shift deacetylase assay, HDAC1; assay type: biochemical; conditions: at the indicated concentration (8-40 μM); avg. n = 2; relative to DMSO
# T1 construct: purchased BPS Biosciences
# Excerpt: (§1) Values indicate % deacetylase inhibition (avg. n=2) relative to a solvent (DMSO) control treatment measured using recombinant human HDAC1 or HDAC2 and Caliper's mobility shift assay technology. Circle color corresponds to compounds shaded by degree of HDAC1 activity (red, decreased; blue, increased). (A) Complete dataset with box outlined with the red dashes corresponding to the region shown highlighted in (B), which in the assay corresponds to negative inhibition.
# (§2) To identify small molecule activators of HDAC1, a diverse collection of 1,760 small molecules composed of synthetic compounds, natural products, and a subset of FDA approved drugs were arrayed in 384-well plates as ˜10 mM dimethylsulphoxide (DMSO) stocks. To identify modulators (both activators and inhibitors) of HDACs, a fluorescence-based assay that utilizes Caliper's mobility shift assay technology (Hopkinton, Mass.) was used. This assay is based on the electrophoretic separation of N-acetyl lysine peptide substrate from the deacetylated product, which bears an additional positive charge. […] The product and substrate in each independent reaction were separated using a microfluidic chip (Caliper Life Sciences) run on a Caliper LC3000 (Caliper Life Sciences). The product and substrate fluorophore were excited at 488 nm and detected at 530 nm. Substrate conversion was calculated from the electrophoregram using HTS Well Analyzer software (Caliper Life Sciences). Since the amount of converted substrate is measured, and the reactions were performed at the Km for each enzyme, it is possible to identify both inhibitors and activators of HDACs using this assay.
# (§3) Using the mobility shift assay, all compounds were screened in duplicate using a panel of class I and class II HDACs and a N-acetyl lysine peptide substrate. For class I HDACs, HDAC1, HDAC2, and HDAC8 were used. For class IIb HDACs, HDAC6 and to HDAC10 were used. Compounds were incubated for 18-24 hrs and the percent inhibition (avg. n=2) relative to a solvent (DMSO) control treatment of each compound determined through measurement of substrate conversion. […] FIG. 11 provides a list of all of the structures that activated HDAC1 by a value of 5% or greater.
# [2] = molecular target: T2, recombinant human HDAC2 (Homo sapiens, UniProt Q92769); experiment: Caliper mobility shift deacetylase assay, HDAC2; assay type: biochemical; conditions: at the indicated concentration (8-40 μM); avg. n = 2; relative to DMSO
# T2 construct: purchased BPS Biosciences
# Excerpt: as §1, §2, §3
# [3] = molecular target: T3, recombinant human HDAC8 (Homo sapiens, UniProt Q9BY41); experiment: Caliper mobility shift deacetylase assay, HDAC8; assay type: biochemical; conditions: at the indicated concentration (8-40 μM); avg. n = 2; relative to DMSO
# T3 sequence (Q9BY41 1-377): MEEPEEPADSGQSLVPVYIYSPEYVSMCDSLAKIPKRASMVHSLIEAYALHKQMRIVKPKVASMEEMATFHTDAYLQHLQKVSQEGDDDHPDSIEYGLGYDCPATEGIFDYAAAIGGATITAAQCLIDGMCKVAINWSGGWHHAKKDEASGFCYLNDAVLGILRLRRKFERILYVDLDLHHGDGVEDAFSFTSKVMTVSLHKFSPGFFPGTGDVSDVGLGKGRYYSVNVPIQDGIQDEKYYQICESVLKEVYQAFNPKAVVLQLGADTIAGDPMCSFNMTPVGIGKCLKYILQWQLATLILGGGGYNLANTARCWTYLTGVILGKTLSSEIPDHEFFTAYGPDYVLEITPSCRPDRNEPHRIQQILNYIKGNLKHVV
# Experimental: as §2
# (§4) Using the mobility shift assay, all compounds were screened in duplicate using a panel of class I and class II HDACs and a N-acetyl lysine peptide substrate. For class I HDACs, HDAC1, HDAC2, and HDAC8 were used. For class IIb HDACs, HDAC6 and to HDAC10 were used. Compounds were incubated for 18-24 hrs and the percent inhibition (avg. n=2) relative to a solvent (DMSO) control treatment of each compound determined through measurement of substrate conversion.
# [4] = molecular target: T4, recombinant human HDAC10 (Homo sapiens, UniProt Q969S8); experiment: Caliper mobility shift deacetylase assay, HDAC10; assay type: biochemical; conditions: at the indicated concentration (8-40 μM); avg. n = 2; relative to DMSO
# T4 sequence (Q969S8 1-669): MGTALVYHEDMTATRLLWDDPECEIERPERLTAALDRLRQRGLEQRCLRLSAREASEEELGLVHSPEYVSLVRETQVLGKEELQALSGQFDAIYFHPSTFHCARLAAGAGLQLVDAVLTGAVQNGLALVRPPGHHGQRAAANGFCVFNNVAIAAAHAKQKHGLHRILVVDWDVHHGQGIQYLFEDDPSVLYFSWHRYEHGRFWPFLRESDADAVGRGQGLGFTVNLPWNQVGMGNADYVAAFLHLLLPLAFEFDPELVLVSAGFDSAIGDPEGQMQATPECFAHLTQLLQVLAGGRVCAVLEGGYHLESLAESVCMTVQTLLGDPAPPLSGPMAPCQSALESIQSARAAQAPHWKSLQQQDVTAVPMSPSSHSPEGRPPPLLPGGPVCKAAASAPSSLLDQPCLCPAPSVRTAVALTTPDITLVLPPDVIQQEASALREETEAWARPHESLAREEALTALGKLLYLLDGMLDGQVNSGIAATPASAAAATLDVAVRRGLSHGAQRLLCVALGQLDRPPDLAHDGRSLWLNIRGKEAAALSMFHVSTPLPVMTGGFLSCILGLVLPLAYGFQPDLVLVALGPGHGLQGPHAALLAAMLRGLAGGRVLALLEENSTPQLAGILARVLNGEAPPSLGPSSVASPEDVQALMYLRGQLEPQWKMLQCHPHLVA
# Experimental: as §2, §4
# [5] = molecular target: T5, recombinant human HDAC6 (Homo sapiens, UniProt Q9UBN7); experiment: Caliper mobility shift deacetylase assay, HDAC6; assay type: biochemical; conditions: at the indicated concentration (8-40 μM); avg. n = 2; relative to DMSO
# T5 sequence (Q9UBN7 1-1215): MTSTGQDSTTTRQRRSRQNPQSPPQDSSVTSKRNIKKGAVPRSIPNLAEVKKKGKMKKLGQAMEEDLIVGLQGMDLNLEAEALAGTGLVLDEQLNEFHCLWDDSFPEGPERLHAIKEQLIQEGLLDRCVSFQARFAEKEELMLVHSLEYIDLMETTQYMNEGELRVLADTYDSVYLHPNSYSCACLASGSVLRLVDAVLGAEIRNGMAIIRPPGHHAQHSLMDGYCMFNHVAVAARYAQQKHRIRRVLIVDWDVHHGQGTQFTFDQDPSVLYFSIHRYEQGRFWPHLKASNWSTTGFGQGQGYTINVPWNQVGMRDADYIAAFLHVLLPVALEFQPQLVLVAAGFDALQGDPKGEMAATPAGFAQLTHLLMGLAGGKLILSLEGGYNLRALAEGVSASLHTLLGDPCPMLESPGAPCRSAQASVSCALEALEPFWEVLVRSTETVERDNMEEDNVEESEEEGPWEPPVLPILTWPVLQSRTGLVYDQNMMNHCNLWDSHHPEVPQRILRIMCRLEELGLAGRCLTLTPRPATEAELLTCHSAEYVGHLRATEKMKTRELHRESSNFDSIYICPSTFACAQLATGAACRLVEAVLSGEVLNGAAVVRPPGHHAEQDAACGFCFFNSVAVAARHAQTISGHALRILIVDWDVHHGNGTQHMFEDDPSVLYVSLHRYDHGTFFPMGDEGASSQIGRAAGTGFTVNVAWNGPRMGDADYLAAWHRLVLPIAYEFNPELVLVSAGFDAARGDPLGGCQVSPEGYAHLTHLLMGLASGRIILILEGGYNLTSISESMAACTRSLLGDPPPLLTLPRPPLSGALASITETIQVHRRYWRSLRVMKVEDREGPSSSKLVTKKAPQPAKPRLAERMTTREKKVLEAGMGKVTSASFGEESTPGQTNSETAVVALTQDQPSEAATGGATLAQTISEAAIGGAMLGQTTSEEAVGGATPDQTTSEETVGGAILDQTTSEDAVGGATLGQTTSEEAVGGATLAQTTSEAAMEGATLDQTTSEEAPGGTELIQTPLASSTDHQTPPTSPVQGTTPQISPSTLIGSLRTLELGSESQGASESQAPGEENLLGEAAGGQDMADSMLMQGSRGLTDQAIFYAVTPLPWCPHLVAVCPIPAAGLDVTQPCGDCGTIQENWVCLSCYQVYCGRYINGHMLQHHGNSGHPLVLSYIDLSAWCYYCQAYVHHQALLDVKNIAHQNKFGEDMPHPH
# Experimental: as §2, §4
# [6] = tested on: primary cortical neurons; experiment: γH2AX and Ki-67 immunostaining of primary cortical neurons treated with HDAC1 inhibitor; assay type: cell-based; conditions: 1 μM, 24 h, compared to vehicle (DMSO) controls
# Experimental: (A, B) Primary cortical neurons were transfected with either HDAC1 siRNA or random sequence siRNA, along with GFP at a 7:1 ratio to label transfected neurons. Cells were fixed at 24 h, 48 h, and 72 h post-transfection and immunostained for γH2AX. GFP-positive neurons were scored for γH2AX immunoreactivity and for cell death based on nuclear condensation and neuritic integrity, as described in Methods. (A) Representative micrographs. HDAC1 siRNA or control (random sequence) siRNA transfected neurons are indicated by arrows. The HDAC1 siRNA transfected neurons display neuritic breakage. The inset is a magnification of the γH2AX staining of the neuron indicated by arrow and asterisk, showing γH2AX foci of varying sizes. Percentage of γH2AX and cell death are shown as averages from multiple sets ±S.D. It was noted that transfection of control siRNA per se appeared to cause a low but detectable level of γH2AX immunoreactivity and cell death. […] Controls were treated with equal amounts of vehicle (DMSO). Total numbers of γH2AX and Ki-67 positive neurons were quantified over 20 microscope fields (field diameter ˜900 μm). Scale bar=100 μm. […] Scale bar=[…].
# Our findings raised the possibility that p25/cdk5 may cause both cell cycle reentry and DNA damage through inhibition of HDAC1 activity. We examined the effects of siRNA-mediated knockdown or pharmacological inhibition of HDAC1.
# [7] = tested on: WT mice; experiment: Contextual fear conditioning in WT mice; assay type: in vivo, mouse
# Experimental: Fear conditioning. Fear conditioning experiments were carried out as previously described (Kim et al., 2007), using a fear conditioning apparatus (TSE Systems, Midland, Mich.).
# [8] = tested on: leukemia patients; conditions: phase I clinical trial; cited from earlier work
# [9] = tested on: brain-derived neurotrophic factor (BDNF) expression in glioma cell line (C6); experiment: BDNF expression in glioma cell line (C6); assay type: cell-based; conditions: submicromolar concentrations, data not shown
# T1 sequence (Q13547 whole entry): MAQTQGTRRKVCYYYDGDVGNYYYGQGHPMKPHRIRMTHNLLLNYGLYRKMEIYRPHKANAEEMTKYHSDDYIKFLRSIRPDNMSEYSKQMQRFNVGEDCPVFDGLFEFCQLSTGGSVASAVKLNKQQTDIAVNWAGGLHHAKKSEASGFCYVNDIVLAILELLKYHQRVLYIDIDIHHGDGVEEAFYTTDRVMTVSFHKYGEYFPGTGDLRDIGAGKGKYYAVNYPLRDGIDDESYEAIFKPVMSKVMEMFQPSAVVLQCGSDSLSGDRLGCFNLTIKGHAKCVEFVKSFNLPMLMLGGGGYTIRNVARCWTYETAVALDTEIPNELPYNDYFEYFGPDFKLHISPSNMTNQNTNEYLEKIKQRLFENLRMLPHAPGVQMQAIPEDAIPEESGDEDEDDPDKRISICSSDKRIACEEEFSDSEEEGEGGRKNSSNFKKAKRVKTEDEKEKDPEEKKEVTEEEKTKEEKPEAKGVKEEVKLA
# T2 sequence (Q92769 whole entry): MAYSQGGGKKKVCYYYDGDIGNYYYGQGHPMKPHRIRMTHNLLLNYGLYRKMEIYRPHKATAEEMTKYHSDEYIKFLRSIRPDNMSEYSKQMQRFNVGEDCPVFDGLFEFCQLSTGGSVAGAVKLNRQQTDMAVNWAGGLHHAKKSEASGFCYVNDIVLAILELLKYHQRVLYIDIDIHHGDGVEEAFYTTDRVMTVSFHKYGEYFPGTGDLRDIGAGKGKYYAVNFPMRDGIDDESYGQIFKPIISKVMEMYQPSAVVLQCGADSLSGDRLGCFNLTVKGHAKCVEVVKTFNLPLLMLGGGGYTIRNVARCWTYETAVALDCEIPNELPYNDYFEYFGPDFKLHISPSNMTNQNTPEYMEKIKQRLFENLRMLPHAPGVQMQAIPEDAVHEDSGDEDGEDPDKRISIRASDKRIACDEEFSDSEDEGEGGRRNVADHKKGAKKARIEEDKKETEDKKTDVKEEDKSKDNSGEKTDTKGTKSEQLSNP
HDAC1 % activation of deacetylase activity [1],HDAC2 % activation of deacetylase activity [2],HDAC8 % activation of deacetylase activity [3],HDAC10 % activation of deacetylase activity [4],HDAC6 % activation of deacetylase activity [5],aberrant expression of Ki-67 (Ki-67 positive neurons) [6],double strand DNA breaks (γH2AX positive neurons) [6],"freezing behavior in contextual fear conditioning ([7]; 25 mg/kg IP daily for 10 days, vs saline)",associative learning capability (contextual fear conditioning) ([7]; 12.5 or 25 mg/kg IP daily for 10 days),Molecule,dose-limiting toxicity (DLT) [8],expression of brain-derived neurotrophic factor (BDNF) [9]
11%,−6%,−1%,13%,−10%,–,–,–,–,tetrahydrogamboic acid,–,–
8%,−3%,4%,2%,−5%,–,–,–,–,CC(=O)N(O)CCCCCNC(=O)CCC(=O)N(O)CCCCCNC(=O)CCC(=O)N(O)CCCCCN [deferoxamine],–,–
5%,−1%,2%,−3%,−4%,–,–,–,–,CC1=NN(c2ccc(Br)cc2Br)C(=O)/C1=C(/C)NCc1ccccc1 [TAM-12],–,–
–,–,–,–,–,1.8 fold increase,8.1 fold increase,reduced freezing behavior,impaired associative learning capability,Nc1ccccc1NC(=O)c1ccc(CNC(=O)OCc2cccnc2)cc1 [MS-275],neurologic toxicity manifesting as unsteady gait and somnolence,–
5%,−5%,0%,1%,−2%,–,–,–,–,COC(=O)[C@H]1[C@H]2C[C@H]3c4[nH]c5ccccc5c4CCN3C[C@H]2CC[C@@H]1O [alpha-yohimbine],–,–
42%,−7%,−3%,56%,−18%,–,–,–,–,ginkgetin K [genxgetin K],–,–

# The remaining lines, values behind:
Molecule,HDAC1 % activation of deacetylase activity [1],HDAC2 % activation of deacetylase activity [2],HDAC8 % activation of deacetylase activity [3],HDAC10 % activation of deacetylase activity [4],HDAC6 % activation of deacetylase activity [5],aberrant expression of Ki-67 (Ki-67 positive neurons) [6],double strand DNA breaks (γH2AX positive neurons) [6],"freezing behavior in contextual fear conditioning ([7]; 25 mg/kg IP daily for 10 days, vs saline)",associative learning capability (contextual fear conditioning) ([7]; 12.5 or 25 mg/kg IP daily for 10 days),dose-limiting toxicity (DLT) [8],expression of brain-derived neurotrophic factor (BDNF) [9]
COc1ccc(-c2cc(=O)c3c(O)cc(O)c(-c4cc(-c5cc(=O)c6c(O)cc(OC)cc6o5)ccc4OC)c3o2)cc1 [sciadopitysin],19%,−4%,0%,19%,−5%,–,–,–,–,–,–
CC(C)=CCC[C@]1(C)C=Cc2c(O)c3c(c(CC=C(C)C)c2O1)O[C@]12C(=C[C@@H]4C[C@H]1C(C)(C)O[C@@]2(C/C=C(/C)C(=O)O)C4=O)C3=O [gambogic acid],22%,−5%,−8%,13%,−63%,–,–,–,–,–,–
"O=C(CCCCCCC(=O)Nc1ccccc1)NO [SAHA, suberoylanilide hydroxamic acid]",–,–,–,–,–,–,–,–,–,–,induced expression
O=c1c(O)cc([C@H]2Oc3cc(O)cc(O)c3C[C@H]2O)cc2c([C@H]3Oc4cc(O)cc(O)c4C[C@H]3O)cc(O)c(O)c12 [theaflavin],5%,−8%,−10%,0%,−79%,–,–,–,–,–,–
